Species: Rattus norvegicus
Assay: Open TG-GATES - Regimen: Daily Repeat
Format: toxicity, organism-based, Sprague-Dawley
Design: regimen Daily Repeat, gender Male, age 6 weeks
Conditions: in vivo, po, route gavage; for Bas / Eos / Fbg / Ht / Lym / MCH / MCHC / MCV / Mono / Neu / PT / Plat / RBC / Ret / WBC / APTT: tissue Blood; for KIDNEY_L / KIDNEY_R / KIDNEY_TOTAL: tissue Kidney; for ALP / ALT / AST / CRE / Ca / Cl / DBIL / GLC / IP / K / LDH / RALB / TBIL / TC / TG / TP / gamma-GTP: tissue Plasma
[1] = 0 mg/kg, 72 h, dose level Control, time 3 day
[2] = 0 mg/kg, […], dose level Control, time 7 day
[3] = 0 mg/kg, […], dose level Control, time 14 day
[4] = 0 mg/kg, […], dose level Control, time 28 day
[5] = 10 mg/kg, 72 h, dose level Low, time 3 day
[6] = 10 mg/kg, […], dose level Low, time 7 day
[7] = 10 mg/kg, […], dose level Low, time 14 day
[8] = 10 mg/kg, […], dose level Low, time 28 day

Cn1c(=O)c2c(ncn2C)n(C)c1=O [CAFFEINE]
TERMINAL_BW [1]: 229.3 g
Bas [1]: 0%
Eos [1]: 0.6%
Fbg [1]: 311 mg/dL
Ht [1]: 39.9%
Lym [1]: 81.2%
MCH [1]: 21.1 pg
MCHC [1]: 33.1%
MCV [1]: 63.7 fL
Mono [1]: 2%
Neu [1]: 15.6%
PT [1]: 15.7 s
Plat [1]: 113.5 x10_4/uL
RBC [1]: 627 x10_4/ul
Ret [1]: 6.4%
WBC [1]: 79.7 x10_2/uL
KIDNEY_L [1]: 1 g
KIDNEY_R [1]: 1 g
KIDNEY_TOTAL [1]: 2 g
ALP [1]: 1435.4 IU/L
ALT [1]: 51.2 IU/L
AST [1]: 77 IU/L
CRE [1]: 0.2 mg/dL
Ca [1]: 10.9 mg/dL
Cl [1]: 108.2 meq/L
DBIL [1]: 0 mg/dL
GLC [1]: 187.2 mg/dL
IP [1]: 7.9 mg/dL
K [1]: 4.1 meq/L
LDH [1]: 159 IU/L
RALB [1]: 3 g/dL
TBIL [1]: 0.004 mg/dL
TC [1]: 69.2 mg/dL
TG [1]: 83.4 mg/dL
TP [1]: 5.6 g/dL
gamma-GTP [1]: 1.4 IU/L
TERMINAL_BW [2]: 259.6 g
TERMINAL_BW [3]: 312 g
TERMINAL_BW [4]: 388.1 g
APTT [2]: 22.5 s
Bas [2]: 0%
Eos [2]: 0.8%
Fbg [2]: 342.6 mg/dL
Ht [2]: 40.7%
Lym [2]: 79%
MCH [2]: 21.2 pg
MCHC [2]: 33.6%
MCV [2]: 63.2 fL
Mono [2]: 1.8%
Neu [2]: 17.4%
PT [2]: 15.4 s
Plat [2]: 116.2 x10_4/uL
RBC [2]: 644.8 x10_4/ul
Ret [2]: 6%
WBC [2]: 120.4 x10_2/uL
APTT [3]: 22.6 s
Bas [3]: 0%
Eos [3]: 1%
Fbg [3]: 311.4 mg/dL
Ht [3]: 41.1%
Lym [3]: 84.2%
MCHC [3]: 34.2%
MCV [3]: 59.8 fL
Mono [3]: 2.4%
Neu [3]: 11.4%
PT [3]: 15.5 s
Plat [3]: 117.4 x10_4/uL
RBC [3]: 688 x10_4/ul
Ret [3]: 4.3%
WBC [3]: 117.6 x10_2/uL
Bas [4]: 0%
Eos [4]: 1.2%
Fbg [4]: 317 mg/dL
Ht [4]: 43.6%
Lym [4]: 81%
MCH [4]: 19.4 pg
MCHC [4]: 34.6%
MCV [4]: 56.1 fL
Mono [4]: 1.6%
PT [4]: 15.7 s
Plat [4]: 102.1 x10_4/uL
RBC [4]: 778.2 x10_4/ul
Ret [4]: 2.6%
WBC [4]: 103.3 x10_2/uL
KIDNEY_L [2]: 1.1 g
KIDNEY_R [2]: 1.1 g
KIDNEY_TOTAL [2]: 2.3 g
KIDNEY_L [3]: 1.2 g
KIDNEY_R [3]: 1.2 g
KIDNEY_TOTAL [3]: 2.4 g
KIDNEY_L [4]: 1.4 g
KIDNEY_R [4]: 1.5 g
KIDNEY_TOTAL [4]: 2.9 g
ALP [2]: 1993.2 IU/L
ALT [2]: 46 IU/L
AST [2]: 70.6 IU/L
CRE [2]: 0.1 mg/dL
Ca [2]: 10.5 mg/dL
Cl [2]: 106 meq/L
DBIL [2]: 0 mg/dL
GLC [2]: 197.8 mg/dL
IP [2]: 7.7 mg/dL
K [2]: 4.7 meq/L
LDH [2]: 185.6 IU/L
RALB [2]: 3 g/dL
TBIL [2]: 0 mg/dL
TC [2]: 76.6 mg/dL
TG [2]: 118.6 mg/dL
TP [2]: 5.5 g/dL
gamma-GTP [2]: 1.8 IU/L
ALP [3]: 1572.4 IU/L
ALT [3]: 40.8 IU/L
AST [3]: 68.4 IU/L
CRE [3]: 0.2 mg/dL
Ca [3]: 10.5 mg/dL
Cl [3]: 104.6 meq/L
DBIL [3]: 0 mg/dL
GLC [3]: 216 mg/dL
IP [3]: 7.5 mg/dL
K [3]: 4.5 meq/L
LDH [3]: 181 IU/L
RALB [3]: 3 g/dL
TBIL [3]: 0 mg/dL
TG [3]: 150.2 mg/dL
TP [3]: 5.8 g/dL
gamma-GTP [3]: 2.4 IU/L
ALP [4]: 1038 IU/L
ALT [4]: 43.6 IU/L
AST [4]: 66.6 IU/L
CRE [4]: 0.2 mg/dL
Ca [4]: 10.4 mg/dL
Cl [4]: 105 meq/L
DBIL [4]: 0 mg/dL
GLC [4]: 197.4 mg/dL
IP [4]: 6.6 mg/dL
K [4]: 4.1 meq/L
LDH [4]: 146 IU/L
RALB [4]: 3.1 g/dL
TBIL [4]: 0.004 mg/dL
TC [4]: 71 mg/dL
TG [4]: 138.8 mg/dL
TP [4]: 6.1 g/dL
gamma-GTP [4]: 2.2 IU/L
TERMINAL_BW [5]: 226.8 g
APTT [5]: 21.4 s
Bas [5]: 0%
Eos [5]: 1%
Fbg [5]: 307.2 mg/dL
Ht [5]: 38.9%
Lym [5]: 80.2%
MCH [5]: 20.9 pg
MCHC [5]: 33.2%
MCV [5]: 62.9 fL
Mono [5]: 1.8%
Neu [5]: 16.4%
PT [5]: 15.5 s
Plat [5]: 118.8 x10_4/uL
RBC [5]: 618.6 x10_4/ul
Ret [5]: 5.7%
WBC [5]: 73.5 x10_2/uL
KIDNEY_L [5]: 1 g
KIDNEY_R [5]: 1 g
KIDNEY_TOTAL [5]: 2 g
ALP [5]: 1442.2 IU/L
ALT [5]: 43.8 IU/L
AST [5]: 70.8 IU/L
CRE [5]: 0.2 mg/dL
Ca [5]: 10.8 mg/dL
Cl [5]: 107.6 meq/L
DBIL [5]: 0 mg/dL
GLC [5]: 183.2 mg/dL
IP [5]: 7.5 mg/dL
K [5]: 4.2 meq/L
LDH [5]: 154.6 IU/L
RALB [5]: 3 g/dL
TBIL [5]: 0.004 mg/dL
TC [5]: 75.8 mg/dL
TG [5]: 87.8 mg/dL
TP [5]: 5.6 g/dL
gamma-GTP [5]: 1.2 IU/L
TERMINAL_BW [6]: 259.9 g
TERMINAL_BW [7]: 300.9 g
TERMINAL_BW [8]: 396.8 g
APTT [6]: 22.8 s
Bas [6]: 0%
Eos [6]: 1%
Fbg [6]: 316 mg/dL
Ht [6]: 40.6%
Lym [6]: 79%
MCH [6]: 20.9 pg
MCHC [6]: 33.3%
MCV [6]: 62.7 fL
Mono [6]: 2%
Neu [6]: 16.8%
PT [6]: 15.3 s
Plat [6]: 112.2 x10_4/uL
RBC [6]: 648.4 x10_4/ul
Ret [6]: 6.1%
WBC [6]: 106.3 x10_2/uL
APTT [7]: 23.2 s
Bas [7]: 0%
Eos [7]: 0.8%
Fbg [7]: 306.2 mg/dL
Ht [7]: 41.1%
Lym [7]: 81.2%
MCH [7]: 20.1 pg
MCHC [7]: 34%
MCV [7]: 59.2 fL
Mono [7]: 1.4%
Neu [7]: 15.4%
PT [7]: 15.1 s
Plat [7]: 112.6 x10_4/uL
RBC [7]: 693.6 x10_4/ul
Ret [7]: 4.5%
WBC [7]: 105.4 x10_2/uL
APTT [8]: 25.8 s
Bas [8]: 0%
Eos [8]: 0.6%
Fbg [8]: 309.2 mg/dL
Ht [8]: 43.1%
Lym [8]: 84%
MCHC [8]: 34.5%
MCV [8]: 54.7 fL
Mono [8]: 1.6%
Plat [8]: 99.3 x10_4/uL
RBC [8]: 788.8 x10_4/ul
Ret [8]: 2.5%
WBC [8]: 105.2 x10_2/uL
KIDNEY_L [6]: 1.1 g
KIDNEY_R [6]: 1.1 g
KIDNEY_TOTAL [6]: 2.2 g
KIDNEY_L [7]: 1.2 g
KIDNEY_R [7]: 1.2 g
KIDNEY_TOTAL [7]: 2.5 g
KIDNEY_L [8]: 1.5 g
KIDNEY_R [8]: 1.5 g
KIDNEY_TOTAL [8]: 3 g
ALP [6]: 1552.6 IU/L
ALT [6]: 47.6 IU/L
AST [6]: 75.2 IU/L
CRE [6]: 0.2 mg/dL
Ca [6]: 10.5 mg/dL
Cl [6]: 106.4 meq/L
DBIL [6]: 0 mg/dL
GLC [6]: 192.8 mg/dL
IP [6]: 7.8 mg/dL
K [6]: 4.4 meq/L
LDH [6]: 179.4 IU/L
RALB [6]: 3 g/dL
TBIL [6]: 0.002 mg/dL
TC [6]: 73.4 mg/dL
TG [6]: 102.4 mg/dL
TP [6]: 5.5 g/dL
gamma-GTP [6]: 2.4 IU/L
ALP [7]: 1475.8 IU/L
AST [7]: 71.8 IU/L
CRE [7]: 0.2 mg/dL
Ca [7]: 10.6 mg/dL
Cl [7]: 105.8 meq/L
DBIL [7]: 0 mg/dL
GLC [7]: 194 mg/dL
IP [7]: 6.8 mg/dL
K [7]: 4.2 meq/L
LDH [7]: 160.2 IU/L
RALB [7]: 3 g/dL
TBIL [7]: 0.004 mg/dL
TC [7]: 68.4 mg/dL
TG [7]: 146.6 mg/dL
TP [7]: 5.8 g/dL
gamma-GTP [7]: 2.2 IU/L
ALP [8]: 1054 IU/L
ALT [8]: 43 IU/L
AST [8]: 66.2 IU/L
CRE [8]: 0.2 mg/dL
Ca [8]: 10.4 mg/dL
Cl [8]: 105.8 meq/L
DBIL [8]: 0 mg/dL
GLC [8]: 204.4 mg/dL
IP [8]: 6.7 mg/dL
K [8]: 4 meq/L
LDH [8]: 153 IU/L
RALB [8]: 3.2 g/dL
TBIL [8]: 0.004 mg/dL
TC [8]: 73.6 mg/dL
TG [8]: 147.6 mg/dL
